In one test the test system is Hep 3B. The following applies: based on the prior published result; read-out: IC50 against Hep 3B; cited from earlier work.
In a further test the test system is HepG2. Nature of the test: MTT cell viability assay, HepG2. It counts as cell-based. The following applies: 48 hours, human hepatoma HepG2, average of at least six independent experiments. How it is done:
(§1) Human hepatoma (HepG2 and Hep 3B) and human breast cancer (MCF-7) cell lines were obtained from American Type Culture Collection (Rockville, Md., USA). HepG2 and Hep 3B cells were cultured in MEM alpha medium (Invitrogen/Gibco BRL, Grand Island, N.Y., USA) and MCF-7 cells were cultured in DMEM medium (Invitrogen/Gibco BRL). All cells were cultured at 37° C. in 5% CO2 in culture media supplemented with 10% fetal bovine serum (Invitrogen/Gibco BRL) and 100 U/ml streptomycin and penicillin (Invitrogen/Gibco BRL). For treatment, cells were seeded in six-well plates at 6.25×10^5 cells/well. On the following day, the media were changed to serum-free and the cells were serum-starved for 24 h. […]
(§2) The MTT (3-(4, 5-dimethylthiazol-2-yl)-2,5-diphenyl tetrazolium bromide) cell viability assay is a colorimetric assay system, which measures the reduction of a tetrazolium component (MTT) into an insoluble blue/purple colored formazan product by succinate tetrazolium reductase in mitochondria of viable cells. The absorbance of the complex is read spectrophotometrically and is directly proportional to the number of live or viable cells. […]
(§3) To each of the 96 well plates seeded at a density of 5,000 cells per well, a known concentration of test compounds were added individually. […] The IC50 value was determined by a nonlinear curve fitting program using the GraphPad prism software v 4.01.

The next test deals with MCF-7. The experiment in a line: MTT cell viability assay, MCF-7. The following applies: MCF7, 48 hours, human breast cancer MCF-7, average of at least six independent experiments. It counts as cell-based. The method, then:
as §1, §2, §3

The test system of another test is Hep3B. The experiment in a line: MTT cell viability assay, Hep3B. It counts as cell-based. Particulars: 48 hours, human hepatoma Hep3B, average of at least six independent experiments. How it is done:
as §1, §2, §3

Bounds are passed on as bounds.

Consider `COC1=C(OC)C(O)C(CC=C(C)CCC=C(C)CCC=C(C)C)C(C)C1=O` (stereo not shown) [4-hydroxy-2,3-dimethoxy-6-methyl-5-(3,7,11-trimethyldodeca-2,6,10-trienyl)cyclohex-2-enone], for which, in the test with Hep 3B, the concentration for half-maximal inhibition (IC50) was > 30000 nM.

As for `CC(C)=CCC/C(C)=C/CC/C(C)=C/Cc1c(O)ccc(O)c1C` [Compound 1], the IC50 turned out to be 948 nM in the test with HepG2, 519 nM in the test on MCF-7 and 325 nM in the test with Hep3B.

With `CC(C)=CCC/C(C)=C/CC/C(C)=C/CC1C(O)C=CC(=O)C1C` (stereo not shown) [Compound 3], the values for the IC50 in the test with HepG2, in the test with MCF-7 and with Hep3B were 156 nM, 108 nM and 4.3 nM, respectively.

(Values after patent US20160237012A1, “ANTICANCER AGENTS AND PROCESS OF MAKING THEREOF” (Golden Biotechnology Corporation, priority 2015, published 2016).)
